Laboratory results: ChEMBL document CHEMBL5550154, “Novel biaryloxazolidinone derivatives with broad-spectrum antibacterial activity, favorable drug-like profiles and in vivo efficacy against linezolid-resistant Staphylococcusaureus” (Eur J Med Chem, 2024)
Values after ≈ are worked out from the molar mass of the structure shown.

How the values were obtained:
Staphylococcus aureus [1] = test: Antibacterial activity against Staphylococcus aureus ATCC29213 assessed as inhibition of bacterial growth incubated for 16 to 20 hrs by CLSI based broth liquid microdilution method; format: functional; conditions: time 16-20 hrs
Staphylococcus aureus [2] = test: Antibacterial activity against methicillin-resistant Staphylococcus aureus assessed as inhibition of bacterial growth incubated for 16 to 20 hrs by CLSI based broth liquid microdilution method; format: functional; conditions: time 16-20 hrs
Staphylococcus aureus [3] = test: Antibacterial activity against methicillin-sensitive Staphylococcus aureus assessed as inhibition of bacterial growth incubated for 16 to 20 hrs by CLSI based broth liquid microdilution method; format: functional; conditions: time 16-20 hrs
Staphylococcus aureus [4] = test: Antibacterial activity against linezolid-resistant Staphylococcus aureus assessed as inhibition of bacterial growth incubated for 16 to 20 hrs by CLSI based broth liquid microdilution method; format: functional; conditions: time 16-20 hrs
Enterococcus faecalis = test: Antibacterial activity against linezolid-resistant Enterococcus faecalis assessed as inhibition of bacterial growth incubated for 16 to 20 hrs by CLSI based broth liquid microdilution method; format: functional; conditions: time 16-20 hrs
[5] = Microsomal stability in human liver microsomes assessed as elimination half life pretreated with compound upto 60 mins followed by NADPH addition and measured after 60 mins by LC/MS analysis; format: ADME, Microsome; conditions: time < 120 min; for half-life: liver microsomes, read-out: beta t1/2
[6] = Microsomal stability in mouse liver microsomes assessed as elimination half life pretreated with compound upto 60 mins followed by NADPH addition and measured after 60 mins by LC/MS analysis; format: ADME, Microsome; conditions: time < 120 min; for half-life: liver microsomes, read-out: beta t1/2
[7] = Microsomal stability in human liver microsomes assessed as intrinsic clearance pretreated with compound upto 60 mins followed by NADPH addition and measured after 60 mins by LC/MS analysis; format: ADME, Microsome; conditions: time < 120 min, read-out: CLH
[8] = Microsomal stability in monkey liver microsomes assessed as intrinsic clearance pretreated with compound upto 60 mins followed by NADPH addition and measured after 60 mins by LC/MS analysis; format: ADME, Macaca mulatta, Microsome; conditions: rhesus monkey, time < 120 min, read-out: CLH
[9] = Microsomal stability in dog liver microsomes assessed as intrinsic clearance pretreated with compound upto 60 mins followed by NADPH addition and measured after 60 mins by LC/MS analysis; format: ADME, Canis lupus familiaris, Microsome; conditions: time < 120 min; for microsomal CLint: liver microsomes, read-out: CLH
[10] = Microsomal stability in human liver microsomes assessed as parent compound remaining pretreated with compound upto 60 mins followed by NADPH addition and measured after 60 mins by LC/MS analysis; format: ADME, Microsome; conditions: time < 120 min; for remaining at 2 h: liver microsomes, read-out: Stability
[11] = Microsomal stability in monkey liver microsomes assessed as parent compound remaining pretreated with compound upto 60 mins followed by NADPH addition and measured after 60 mins by LC/MS analysis; format: ADME, Macaca mulatta, Microsome; conditions: rhesus monkey, time < 120 min, read-out: Stability
[12] = Microsomal stability in dog liver microsomes assessed as parent compound remaining pretreated with compound upto 60 mins followed by NADPH addition and measured after 60 mins by LC/MS analysis; format: ADME, Canis lupus familiaris, Microsome; conditions: time < 120 min, read-out: Stability
[13] = Stability in rat plasma assessed as parent compound remaining at 37 degreeC measured upto 60 mins by HPLC analysis; format: ADME, cell-free; conditions: read-out: Stability
[14] = Stability in mouse plasma assessed as parent compound remaining at 37 degreeC measured upto 60 mins by HPLC analysis; format: ADME, cell-free; conditions: read-out: Stability
[15] = Stability in human plasma assessed as parent compound remaining at 25 degreeC measured upto 60 mins by HPLC analysis; format: ADME, cell-free; conditions: for remaining at 1 h: read-out: Stability; for Stability: 1 h
[16] = Stability in monkey plasma assessed as parent compound remaining at 25 degreeC measured upto 60 mins by HPLC analysis; format: ADME, cell-free, Macaca mulatta; conditions: rhesus monkey; for remaining at 1 h: read-out: Stability
[17] = Stability in dog plasma assessed as parent compound remaining at 25 degreeC measured upto 60 mins by HPLC analysis; format: ADME, cell-free, Canis lupus familiaris; conditions: read-out: Stability
[18] = Stability in rat plasma assessed as parent compound remaining at 25 degreeC measured upto 60 mins by HPLC analysis; format: ADME, cell-free; conditions: for remaining at 1 h: read-out: Stability
[19] = Stability in mouse plasma assessed as parent compound remaining at 25 degreeC measured upto 60 mins by HPLC analysis; format: ADME, cell-free; conditions: for remaining at 1 h: read-out: Stability; for Stability: 1 h
[20] = Plasma protein binding in human incubated for 6 hrs by LC-MS/MS analysis; format: ADME, cell-free; conditions: read-out: PPB (converted)
[21] = Plasma protein binding in dog incubated for 6 hrs by LC-MS/MS analysis; format: ADME, cell-free, Canis lupus familiaris; conditions: read-out: PPB (converted)
[22] = Plasma protein binding in rat incubated for 6 hrs by LC-MS/MS analysis; format: ADME, cell-free; conditions: read-out: PPB (converted)
[23] = AUC (0 to t) in Sprague-Dawley rat at 1 mg/kg, iv measured upto 24 hrs by LC-MS analysis; format: ADME, organism-based; conditions: in vivo
[24] = Elimination half life in Sprague-Dawley rat at 1 mg/kg, iv measured upto 24 hrs by LC-MS analysis; format: ADME, organism-based; conditions: in vivo, read-out: beta t1/2 (converted)
[25] = Clearance in Sprague-Dawley rat at 1 mg/kg, iv measured upto 24 hrs by LC-MS analysis; format: ADME, organism-based; conditions: in vivo
[26] = Elimination half life in Sprague-Dawley rat at 10 mg/kg, IG measured upto 24 hrs by LC-MS analysis; format: ADME, organism-based; conditions: in vivo, po, read-out: beta t1/2 (converted)
[27] = Tmax in Sprague-Dawley rat at 10 mg/kg, IG measured upto 24 hrs by LC-MS analysis; format: ADME, organism-based; conditions: in vivo, po
[28] = Cmax in Sprague-Dawley rat at 10 mg/kg, IG measured upto 24 hrs by LC-MS analysis; format: ADME, organism-based; conditions: in vivo, po
[29] = AUC (0 to t) in Sprague-Dawley rat at 10 mg/kg, IG measured upto 24 hrs by LC-MS analysis; format: ADME, organism-based; conditions: in vivo, po
[30] = Half life in ICR mouse at 10 mg/kg, IG measured upto 24 hrs by LC-MS analysis; format: ADME, organism-based; conditions: in vivo, po
[31] = AUC (0 to t) in ICR mouse at 10 mg/kg, IG measured upto 24 hrs by LC-MS analysis; format: ADME, organism-based; conditions: in vivo, po
[32] = Cytotoxicity against human HepG2 cells incubated for 48 hrs by MTT assay; format: toxicity, cell-based
Cytochrome P450 2C9 = Cytochrome P450 2C9 (Homo sapiens, UniProt P11712); test: Inhibition of CYP2C9 in human liver microsomes using […] preincubated with compound for 5 mins followed by substrate addition and measured after 120 mins in presence of NADPH by LC-MS/MS analysis; format: ADME, Microsome
Cytochrome P450 2D6 = Cytochrome P450 2D6 (Homo sapiens, UniProt P10635); test: Inhibition of CYP2D6 in human liver microsomes […] preincubated with compound for 5 mins followed by substrate addition and measured after 120 mins in presence of NADPH by LC-MS/MS analysis; format: ADME, Microsome
Sequence of Cytochrome P450 2D6 (P10635 whole entry): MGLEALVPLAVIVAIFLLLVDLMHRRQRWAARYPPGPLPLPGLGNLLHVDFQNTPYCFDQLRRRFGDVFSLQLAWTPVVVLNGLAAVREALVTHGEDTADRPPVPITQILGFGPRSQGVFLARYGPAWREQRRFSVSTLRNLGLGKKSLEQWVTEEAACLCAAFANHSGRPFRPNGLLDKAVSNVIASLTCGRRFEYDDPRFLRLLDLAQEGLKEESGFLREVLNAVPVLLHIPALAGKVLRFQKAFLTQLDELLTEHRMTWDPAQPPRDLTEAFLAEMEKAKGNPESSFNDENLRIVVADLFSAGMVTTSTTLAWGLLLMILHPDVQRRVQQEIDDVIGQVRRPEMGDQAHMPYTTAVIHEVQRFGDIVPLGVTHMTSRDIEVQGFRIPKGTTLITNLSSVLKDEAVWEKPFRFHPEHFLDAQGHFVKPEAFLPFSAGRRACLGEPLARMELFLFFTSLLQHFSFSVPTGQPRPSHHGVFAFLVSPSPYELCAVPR

Sequence of Cytochrome P450 2C9 (P11712 whole entry): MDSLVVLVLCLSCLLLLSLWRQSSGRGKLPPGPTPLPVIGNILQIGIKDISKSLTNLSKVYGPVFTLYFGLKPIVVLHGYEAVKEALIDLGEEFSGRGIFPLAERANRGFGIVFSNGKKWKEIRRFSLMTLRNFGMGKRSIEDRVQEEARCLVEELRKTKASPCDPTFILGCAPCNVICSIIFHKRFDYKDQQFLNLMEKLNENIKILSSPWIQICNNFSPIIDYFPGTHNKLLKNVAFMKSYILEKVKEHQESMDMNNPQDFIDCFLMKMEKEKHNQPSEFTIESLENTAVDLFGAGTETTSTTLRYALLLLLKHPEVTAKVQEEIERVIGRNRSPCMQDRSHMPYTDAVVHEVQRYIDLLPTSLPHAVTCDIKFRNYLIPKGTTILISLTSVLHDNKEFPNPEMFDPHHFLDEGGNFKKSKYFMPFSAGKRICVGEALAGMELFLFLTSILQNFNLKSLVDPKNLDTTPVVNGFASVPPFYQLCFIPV

Row | SMILES | MIC (Staphylococcus aureus [1]) [µg/mL] | microsomal CLint [8] [µL/min/mg] | remaining at 2 h [11] [%] | remaining at 2 h [12] [%] | remaining at 1 h [13] [%] | remaining at 1 h [14] [%] | remaining at 1 h [17] [%] | fraction unbound at 6 h [20] | fraction unbound at 6 h [21] | fraction unbound at 6 h [22] | AUC(0-t) at 24 h [23] [ng·h/mL] | half-life [24] [h] | clearance [25] [mL/min/kg] | half-life [26] [h] | Tmax [27] [h] | Cmax [28] [ng/mL] | AUC(0-t) at 24 h [29] [ng·h/mL] | IC50 at 48 h [32] [µM] | IC50 (Cytochrome P450 2C9) [µM] | IC50 (Cytochrome P450 2D6) [µM] | other results
1 | CC(C)N/N=C/c1ccc(-c2ccc(N3C[C@H](CO)OC3=O)cc2F)cn1 | 0.06 (≈ 0.161 µM) | 13.7 | 66 | 76.7 | 102 | 80.2 | 112 | 0.074 | 0.074 | 0.018 | 1580 | 0.98 | 10.3 | 1.94 | 1.17 | 2480 | 10100 | > 30 | > 30 | > 30 | MIC (Staphylococcus aureus [2]): 0.03 µg/mL (≈ 0.0806 µM); MIC (Staphylococcus aureus [3]): 0.03 µg/mL (≈ 0.0806 µM); MIC (Staphylococcus aureus [4]): 0.03 µg/mL (≈ 0.0806 µM); MIC (Enterococcus faecalis): 1 µg/mL (≈ 2.69 µM); half-life [5]: 4.68 h; beta t1/2 ([6]; microsomes, 2 h): 1.26 h; microsomal CLint [7]: 5.78 µL/min/mg; microsomal CLint [9]: 8.78 µL/min/mg; remaining at 2 h [10]: 85.8%; remaining at 1 h [15]: 112%; remaining at 1 h [16]: 108%; remaining at 1 h [18]: 111%; remaining at 1 h [19]: 113%; half-life [30]: 3.3 h; AUC(0-t) at 24 h [31]: 613 ng·h/mL
2 | O=C1O[C@@H](CO)CN1c1ccc(-c2ccc(/C=N/N3CCCCC3)nc2)c(F)c1 | 0.03 (≈ 0.0753 µM) | 17.2 | 59 | 67.4 | 104 | 111 | 97.4 | 0.013 | 0.017 | 0.006 | 1400 | 1.23 | 11.6 | 2.72 | 1.67 | 1380 | 7170 | > 30 | 5.38 | > 30 | MIC (Staphylococcus aureus [2]): 0.03 µg/mL (≈ 0.0753 µM); MIC (Staphylococcus aureus [3]): 0.03 µg/mL (≈ 0.0753 µM); MIC (Staphylococcus aureus [4]): 0.03 µg/mL (≈ 0.0753 µM); MIC (Enterococcus faecalis): 0.5 µg/mL (≈ 1.25 µM); beta t1/2 ([5]; microsomes, 2 h): 2 h; half-life [6]: 2.5 h; microsomal CLint [7]: 11.8 µL/min/mg; microsomal CLint [9]: 13.1 µL/min/mg; Stability ([10]; microsomes, 2 h): 71.7%; Stability [15]: 149%; remaining at 1 h [16]: 120%; Stability ([18]; 1 h): 124%; Stability [19]: 123%; AUC(0-t) at 24 h [31]: 4740 ng·h/mL
3 | CC(=O)NC[C@H]1CN(c2ccc(N3CCOCC3)c(F)c2)C(=O)O1 [LINEZOLID] | – | 0.446 | 99.4 | 97.8 | 107 | 105 | 99.1 | 0.716 | 0.829 | 0.639 | 719 | 0.41 | 24.7 | 1.08 | 0.5 | 4830 | 13000 | > 30 | > 30 | > 30 | half-life [6]: 10.6 h; microsomal CLint [9]: 0.667 µL/min/mg; remaining at 2 h [10]: 102%; remaining at 1 h [15]: 99.4%; remaining at 1 h [16]: 99.4%; remaining at 1 h [18]: 99.2%; remaining at 1 h [19]: 110%; half-life [30]: 0.8 h; AUC(0-t) at 24 h [31]: 24000 ng·h/mL
4 | O=C1O[C@@H](CO)CN1c1ccc(-c2ccc(/C=N/N3CCS(=O)(=O)CC3)nc2)c(F)c1 | 0.25 (≈ 0.557 µM) | 2.39 | 98.8 | 97 | 106 | 102 | 113 | 0.223 | 0.275 | 0.096 | 1120 | 0.72 | 14.7 | 4.28 | 0.42 | 597 | 2120 | > 30 | > 30 | > 30 | MIC (Staphylococcus aureus [2]): 0.25 µg/mL (≈ 0.557 µM); MIC (Staphylococcus aureus [3]): 0.125 µg/mL (≈ 0.279 µM); MIC (Staphylococcus aureus [4]): 0.25 µg/mL (≈ 0.557 µM); MIC (Enterococcus faecalis): 0.5 µg/mL (≈ 1.11 µM); half-life [5]: 15.3 h; half-life [6]: 32.5 h; microsomal CLint [7]: 1.51 µL/min/mg; CLH ([9]; microsomes, 2 h): 0.804 µL/min/mg; remaining at 2 h [10]: 98.7%; Stability [15]: 126%; Stability ([16]; 1 h): 144%; remaining at 1 h [18]: 113%; Stability [19]: 133%
